Where “and” joins values, the source holds several entries; their conditions need not be identical. Identical values can stand only once. Like-named read-outs stand apart in the source and are kept apart here.
Legend:
[1] = test system: GPCR, transporters, ion channels, nuclear receptors, kinases and non-kinase enzymes; assay: SafetyScan44 panel, overall; assay type: cell-based; details: 10 μM; negative if not exceeding 70% of the control
Procedure: SafetyScan44 assay was performed by DiscoverX according to service provider’s protocol.

[2] = test system: HDM induced asthma mouse model; assay: HDM-steroid insensitive asthma mice model; details: for IL-33 concentration in BAL (Fig 7B), single animals / eosinophils number in BAL (Fig 7A), single animals: day 15
B cells = assay: B lymphocyte activation assay; details: for CD25 expression (Fig 3A), single replicates / ki-67 expression (Fig 3B), single replicates: activated B cells
Procedure: B cells were isolated from human frozen PBMCs using EasySep Human CD19 Positive Isolation Kit (StemCell Technologies) according to manufacturers’ protocol. The cells were seeded in AIM V medium (Gibco). […] After 72 hours of culture the cells were stained with antibody againstCD25 (BC96, eBioscience) and ki-67 (Clone 20Raj1, Invitrogen) and analysed on FACSCalibur.

PIK3CA(M1043I) = target: T1, PIK3CA(M1043I) (Homo sapiens, UniProt P42336, M1043I); assay: KINOMEScan single concentration; assay type: binding; details: 1 μM
T1 construct: purchased Discoverex (KINOMEscan service)
T1 sequence (P42336 whole entry M1043I): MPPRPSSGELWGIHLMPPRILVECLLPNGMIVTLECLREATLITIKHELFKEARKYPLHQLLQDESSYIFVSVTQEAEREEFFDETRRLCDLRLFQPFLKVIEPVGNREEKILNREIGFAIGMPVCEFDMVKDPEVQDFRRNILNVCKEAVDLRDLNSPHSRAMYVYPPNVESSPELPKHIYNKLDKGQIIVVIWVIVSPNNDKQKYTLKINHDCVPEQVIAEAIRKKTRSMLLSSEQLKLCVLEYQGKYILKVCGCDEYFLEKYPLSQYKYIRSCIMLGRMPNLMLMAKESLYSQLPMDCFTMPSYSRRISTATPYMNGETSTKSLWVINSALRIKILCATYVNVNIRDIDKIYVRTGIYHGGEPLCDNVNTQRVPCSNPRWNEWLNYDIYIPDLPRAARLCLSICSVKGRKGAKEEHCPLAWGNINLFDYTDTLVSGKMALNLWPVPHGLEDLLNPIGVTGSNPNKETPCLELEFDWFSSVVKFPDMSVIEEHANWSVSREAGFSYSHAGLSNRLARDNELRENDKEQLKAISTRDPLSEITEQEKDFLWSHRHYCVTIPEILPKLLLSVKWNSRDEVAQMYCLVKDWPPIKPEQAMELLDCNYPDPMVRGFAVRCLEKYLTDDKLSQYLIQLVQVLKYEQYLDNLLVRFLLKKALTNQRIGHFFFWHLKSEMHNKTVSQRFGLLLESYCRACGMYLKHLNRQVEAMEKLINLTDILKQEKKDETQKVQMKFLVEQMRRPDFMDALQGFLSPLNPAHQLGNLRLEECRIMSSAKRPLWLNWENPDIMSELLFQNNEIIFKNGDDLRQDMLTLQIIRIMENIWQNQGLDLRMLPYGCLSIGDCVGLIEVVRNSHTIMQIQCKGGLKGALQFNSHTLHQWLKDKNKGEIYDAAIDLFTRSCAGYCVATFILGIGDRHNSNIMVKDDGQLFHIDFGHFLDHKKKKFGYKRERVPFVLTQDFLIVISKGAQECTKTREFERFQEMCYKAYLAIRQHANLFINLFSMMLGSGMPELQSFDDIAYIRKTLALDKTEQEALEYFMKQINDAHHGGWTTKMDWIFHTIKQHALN
Procedure: (§1) The inhibitor-kinase binding affinity was assessed in KINOMEscan™ assay (Discoverex) according to service provider’s protocol. In brief, in this binding assay the studied compound in solution is incubated with DNA-tagged kinase and kinase active-site directed ligand bound to the beads. The compound competes for binding to kinase with the immobilized ligand. After incubation beads are removed from the solution and kinase bound to ligand is quantified by qPCR. The strength of compound binding is determined based on its ability to block kinase-ligand binding. 11-point 3-fold serial dilution of CPL302-253 was used in order to determine its binding constants (Kd) against different isotypes of class I PI3K. The single concentration of CPL302-253 was used in order to determine its specificity in abroad panel of 468 human kinases. The measure of compounds affinity to each kinase in the panel was the percentage of kinase activity inhibition by tested ligand in comparison to the control.

PIK3CA(H1047Y) = target: T2, PIK3CA(H1047Y) (Homo sapiens, UniProt P42336, H1047Y); assay: KINOMEScan single concentration; assay type: binding; details: 1 μM
T2 construct: purchased Discoverex (KINOMEscan service)
T2 sequence (P42336 whole entry H1047Y): as the sequence (P42336 whole entry M1043I) above, with I1043M, H1047Y counted along it
Procedure: as §1

PIK3CA(Q546K) = target: T3, PIK3CA(Q546K) (Homo sapiens, UniProt P42336, Q546K); assay: KINOMEScan single concentration; assay type: binding; details: 1 μM
T3 construct: purchased Discoverex (KINOMEscan service)
T3 sequence (P42336 whole entry Q546K): as the sequence (P42336 whole entry M1043I) above, with Q546K, I1043M counted along it
Procedure: as §1

PIK3CB = target: T4, PIK3CB (Homo sapiens, UniProt P42338); assay: KINOMEScan single concentration; assay type: binding; details: 1 μM
T4 construct: purchased Discoverex (KINOMEscan service)
T4 sequence (P42338 whole entry): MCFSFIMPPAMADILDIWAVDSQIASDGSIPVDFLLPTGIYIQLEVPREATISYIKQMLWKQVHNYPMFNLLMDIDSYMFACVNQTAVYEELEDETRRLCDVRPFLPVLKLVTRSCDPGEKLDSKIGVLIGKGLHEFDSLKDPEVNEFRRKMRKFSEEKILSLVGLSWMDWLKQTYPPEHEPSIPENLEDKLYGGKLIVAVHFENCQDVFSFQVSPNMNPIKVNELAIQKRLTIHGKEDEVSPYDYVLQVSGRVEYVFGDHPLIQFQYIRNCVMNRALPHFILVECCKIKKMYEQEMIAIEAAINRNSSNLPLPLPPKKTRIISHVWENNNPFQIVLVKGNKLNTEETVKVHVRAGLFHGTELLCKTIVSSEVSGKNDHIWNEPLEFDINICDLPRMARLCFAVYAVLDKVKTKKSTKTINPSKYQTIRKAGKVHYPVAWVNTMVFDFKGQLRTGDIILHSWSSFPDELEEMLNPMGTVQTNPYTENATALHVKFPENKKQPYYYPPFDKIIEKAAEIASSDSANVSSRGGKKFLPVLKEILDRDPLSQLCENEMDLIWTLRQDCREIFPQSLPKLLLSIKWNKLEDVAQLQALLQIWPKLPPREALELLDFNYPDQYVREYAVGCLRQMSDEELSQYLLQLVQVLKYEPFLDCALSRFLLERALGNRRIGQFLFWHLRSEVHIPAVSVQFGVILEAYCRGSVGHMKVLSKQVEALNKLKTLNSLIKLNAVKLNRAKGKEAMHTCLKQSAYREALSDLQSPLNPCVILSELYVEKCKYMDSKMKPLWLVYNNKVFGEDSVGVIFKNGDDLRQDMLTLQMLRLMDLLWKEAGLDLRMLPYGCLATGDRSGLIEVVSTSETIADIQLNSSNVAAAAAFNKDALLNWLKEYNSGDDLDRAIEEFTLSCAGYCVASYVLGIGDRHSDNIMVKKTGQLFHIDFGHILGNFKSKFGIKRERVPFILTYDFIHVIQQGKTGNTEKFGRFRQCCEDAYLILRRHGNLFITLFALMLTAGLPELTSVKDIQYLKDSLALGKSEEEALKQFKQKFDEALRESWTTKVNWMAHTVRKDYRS
Procedure: as §1

PIK3CA(E545A) = target: T5, PIK3CA(E545A) (Homo sapiens, UniProt P42336, E545A); assay: KINOMEScan single concentration; assay type: binding; details: 1 μM
T5 construct: purchased Discoverex (KINOMEscan service)
T5 sequence (P42336 whole entry E545A): as the sequence (P42336 whole entry M1043I) above, with E545A, I1043M counted along it
Procedure: as §1

[3] = Procedure: Unless otherwise stated, all chemicals and materials were ordered from Merck Life Science. Each biological replicate was prepared in triplicates. […] The negative control contained buffer instead of NADPH solution. Samples were collected at 0, 10, 20 and 40 min or 0 and 40 min for the negative and double negative controls. The reaction was stopped by protein precipitation in 2 volumes of ice cold MeOH with 200 nM imipramine (as an internal standard for LC-MS analysis). Then, the extract was mixed (1 min, 1000 rpm), filtered through 0.22 μm filter on 96-well plate vacuum manifold and subjected to LC-MS analysis. Metabolic stability in mouse and human cryopreserved hepatocytes was performed in suspension on 96-well tissue culture plates at 1 μM concentration in Williams medium E with CM4000 supplements (ThermoFisher Scientific). Cells were thawed according to the manufacturers manual, counted and preincubated for 30 min in a CO2 incubator (5% CO2, 37 °C, 5 · 10^4 cells/well). For the negative control cells were thermally inactivated for 5 min at 95 °C. Similarly to microsomal stability, experiments were done in technical triplicates, with the additional time point at 80’. Samples for LC-MS analysis were prepared as described for microsomes. Intrinsic clearance (Clint) was calculated using the rate of compound disappearance from the reaction. The elimination rate constant (k) was calculated as a module of slope of the linear regression from ln [substrate] vs time. Then, clearance was calculated as Clint = k/d, where d is protein or cell density for microsomal and hepatocyte stability, respectively.
The mobile phases were (A) 10 mM ammonium acetate pH 5.4 in water and (B) methanol. Samples were eluted using a timed, linear gradient from 30% B at 0 min to 90% B at 1.5 min then a hold 90% B to 2.5 min, after it back to initial 30% B to 2.6 min. The columns was equilibrated for up to 5 min. The flow rate was 0.5 mL/min. The injection volume was 3 μL.

[4] = test system: panel of 468 human kinases; assay: KINOMEScan broad panel; assay type: binding; details: 1 μM
Procedure: as §1

[5] = HDM + 0.5 mg/kg i.n., 0.5 mg/kg
[6] = i.n. on day 12, 13 and 14, HDM challenge day 14, BALF day 15
[7] = 72 h, concentration 1 (unit not given)
[8] = 72 h, concentration 10 (unit not given)
[9] = 72 h, concentration 100 (unit not given)
[10] = 72 h, concentration 1000 (unit not given)
[11] = 72 h, concentration 10000 (unit not given)

In the case of `CC(C)(C)N1CCN(Cc2cc3nc(-c4cncc5[nH]ccc45)cc(N4CCOCC4)n3n2)CC1` [CPL302-253], the “inhibition or activation of the studied pathways in SafetyScan44” value [1] is reported as “neither inhibits nor activates any of the studied pathways”, the “IL-33 concentration in BAL (Fig 7B), single animals” value [2, 5] is reported as 1.6 and -0.3 and -1.1 and -0.8 and -4.4 and 3 and 4.4 and -0.4 and -4.7 and 1.7 and the “eosinophils number in BAL (Fig 7A), single animals” value [2, 5] is reported as 32736 and 8169.96 and 5712.6 and 6975 and 20671.5 and 48073 and 6811.27 and 9495.5 and 84434.2 and 46844.4. For the same compound, the “IL-33 concentration in BAL (Fig 7B), single animals” value ([2]; HDM + 5 mg/kg i.n., 5 mg/kg) was 0.5 and 3 and -2.8 and 10.8 and 6.1 and 2.3 and 1 and 2.6 and 9.8, the “eosinophils number in BAL (Fig 7A), single animals” value ([2]; HDM + 5 mg/kg i.n., 5 mg/kg) was 17665.4 and 6769.78 and 17936.5 and 52878.7 and 44238.8 and 8082.51 and 80102.2 and 24189.9 and 38935.1 and 17565.7 and the “IL-33 production in the lungs” value [2, 6] was “effectively blocked”. The “eosinophil influx to the lungs” value [2, 6] was “effectively blocked”, the “B cell proliferation (ki-67 expression)” value (B cells; B cells activated with ODN2006 and αIgM F(ab')2, 72 h) was “blocked also B cell proliferation” and the “concentration at which inhibition of CD25 expression was observed” value (B cells; B cells after BCR and TLR stimulation, 72 h) was 10 nM. For the same compound, the “CD25 expression (Fig 3A), single replicates” value (“CD25 expression (Fig 3A)” below) (B cells; [7]) was 68 and 59 and 72 and 57, the “ki-67 expression (Fig 3B), single replicates” value (from here on “ki-67 expression (Fig 3B)”) (B cells; [7]) was 46 and 43.4 and 77 and the “CD25 expression (Fig 3A)” value (B cells; [8]) was 52 and 60 and 66 and 49. The “ki-67 expression (Fig 3B)” value (B cells; [8]) was 48 and 23.5 and 54, the “CD25 expression (Fig 3A)” value (B cells; [9]) was 39 and 31 and 52 and 64 and 48 and the “ki-67 expression (Fig 3B)” value (B cells; [9]) was 29 and 16.5 and 35. The “CD25 expression (Fig 3A)” value (B cells; [10]) was 9 and 22 and 24 and 38 and 20, the “ki-67 expression (Fig 3B)” value (B cells; [10]) was 23 and 2.4 and 24 and the “CD25 expression (Fig 3A)” value (B cells; [11]) was 4 and 3 and 11 and 6. For the same compound, the “ki-67 expression (Fig 3B)” value (B cells; [11]) was 5 and 1, the “Remaining binding (%)” value (PIK3CA(M1043I)) was 100% and the “Remaining binding (%)” value (PIK3CA(H1047Y)) was 0%. The “Remaining binding (%)” value (PIK3CA(Q546K)) was 99%, the “Remaining binding (%)” value (PIK3CB) was 42% and the “Remaining binding (%)” value (PIK3CA(E545A)) was 45%. The “degradation in human hepatocytes” value [3] was “degradation was not observed at all”, the “Clint, times lower when compared to verapamil” value ([3]; CD-1, mouse, 1 μM) was about 30 times and the “Clint (Fig 5D), single replicates” value ([3]; human, 1 μM) was 0. For the same compound, the “Clint, times lower when compared to verapamil” value ([3]; human, 1 μM) was about 70 times, the “degradation, fold slower as compared to verapamil” value ([3]; mouse, 1 μM) was 11 fold and the “inhibition of binding to specific substrate, kinases other than members of PI3K” value [4] was at most 70%.

Reference: PMC7377474, “Preclinical characterization of CPL302-253, a selective inhibitor of PI3Kδ, as the candidate for the inhalatory treatment and prevention of Asthma” (PLoS ONE, 2020)
